ChEMBL document CHEMBL1201862, “PubChem BioAssay data set” (2004)
Activity calls are given as the source filed them.

How the values were obtained:
[1] = control 3'UTR Renilla luciferase suppression, dose response, counter-screen for Shn3 inhibitor project, cell-based, Clone20-Shn3RL, cherry-picked (AID 624133); assay type: functional
[2] = HepG2 cell cytotoxicity, dose response, cytotoxicity control for Shn3 inhibitor project, CellTiter-Glo, cherry-picked (AID 624134); assay type: functional, cell-based
[3] = Shn3 3'UTR reporter inhibitors, dose response, cell-based, Clone20 osteoblasts, firefly luciferase, cherry-picked (AID 624132); assay type: functional;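 note: firefly luciferase luminescence from reporter carrying the Shn3 3'UTR in osteoblasts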
Protein Wnt-3a = Protein Wnt-3a (Mus musculus, UniProt P27467); assay: Wnt3a-driven reporter signaling inhibition, dose response, selectivity assay for Gli-SUFU antagonist project, Wnt-LIGHT cells, luminescence (AID 651570); assay type: functional; conditions: read-out: IC50_Mean;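 note: Wnt-LIGHT reporter cells stimulated with conditioned medium from Wnt3a-producing cells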
Chain of Protein Wnt-3a (P27467 whole entry): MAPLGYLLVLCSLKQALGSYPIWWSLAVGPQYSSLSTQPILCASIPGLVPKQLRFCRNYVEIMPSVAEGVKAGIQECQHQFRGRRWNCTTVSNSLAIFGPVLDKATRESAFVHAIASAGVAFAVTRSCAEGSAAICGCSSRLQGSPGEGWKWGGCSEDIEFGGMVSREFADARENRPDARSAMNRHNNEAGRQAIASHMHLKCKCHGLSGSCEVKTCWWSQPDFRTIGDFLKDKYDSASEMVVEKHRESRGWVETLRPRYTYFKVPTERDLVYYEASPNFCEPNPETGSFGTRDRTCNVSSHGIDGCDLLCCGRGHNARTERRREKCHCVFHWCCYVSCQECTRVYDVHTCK

[4] = inhibitors of control Renilla luciferase reporter, dose response, counter-screen for Shn3 3'UTR targeting project, Clone20-Shn3RL cells, dual-Glo, cherry-pick, set 2 (AID 720724); assay type: functional, cell-based; conditions: Dual-Go Shn3RL
[5] = reduction of Shn3 3'UTR firefly luciferase signal, dose response, Schnurri-3 inhibitor project, cell-based, Clone20 osteoblasts, cherry-pick, set 2 (AID 720490); assay type: functional;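 note: actives lower the luminescence signal as inhibitors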
Nonstructural protein 1 = Nonstructural protein 1 (Influenza A virus, UniProt Q194T2); assay type: functional, Influenza A virus (A/California/07/2009(H1N1))
Chain of Nonstructural protein 1 (Q194T2 whole entry): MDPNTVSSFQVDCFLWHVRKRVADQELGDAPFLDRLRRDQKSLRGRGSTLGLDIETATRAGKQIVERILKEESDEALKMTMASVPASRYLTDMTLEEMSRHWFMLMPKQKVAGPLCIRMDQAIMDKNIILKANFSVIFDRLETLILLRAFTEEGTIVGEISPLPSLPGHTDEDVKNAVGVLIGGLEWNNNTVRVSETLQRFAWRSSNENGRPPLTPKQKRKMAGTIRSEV

[6] = biological target: Matrix metalloproteinase-14 (Homo sapiens, UniProt P50281); assay: Dose Response confirmation of uHTS hits for a small molecule inhibitors of MT1-MMP activation in a fluorescence assay set 1.; assay type: functional
[7] = LMP1-driven NF-kB reporter inhibition, dose response, cell-based, luciferase reporter, luminescence, dry powder, set 2 (AID 624376); assay type: functional
[8] = inhibitors of TNFa-stimulated NF-kB luciferase reporter, dose response, selectivity assay for EBV LMP1 NF-kB inhibitor project, HEK293 LMP1 reporter cells, dry powder, set 2 (AID 624369); assay type: functional
[9] = biological target: DNA repair protein RAD52 homolog (Homo sapiens, UniProt P43351); assay type: functional, biochemical
Chain of DNA repair protein RAD52 homolog (P43351 whole entry): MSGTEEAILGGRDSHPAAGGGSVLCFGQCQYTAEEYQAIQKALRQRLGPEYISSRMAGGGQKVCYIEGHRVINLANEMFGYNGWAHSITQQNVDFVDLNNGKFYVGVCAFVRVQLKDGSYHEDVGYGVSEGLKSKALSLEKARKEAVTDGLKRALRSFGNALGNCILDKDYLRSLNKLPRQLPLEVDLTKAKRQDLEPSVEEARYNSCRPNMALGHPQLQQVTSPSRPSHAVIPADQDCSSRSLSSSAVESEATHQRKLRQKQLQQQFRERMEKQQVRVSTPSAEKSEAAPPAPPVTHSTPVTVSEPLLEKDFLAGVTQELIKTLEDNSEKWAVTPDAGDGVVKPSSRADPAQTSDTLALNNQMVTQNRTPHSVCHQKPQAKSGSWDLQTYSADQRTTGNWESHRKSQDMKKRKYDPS

[10] = HEK293 cell cytotoxicity, dose response, cytotoxicity control, ATP luminescence, dry powder, Set6 (AID 743142); assay type: functional, cell-based
Cryptococcus neoformans = assay: PubChem AID 686997; assay type: functional, organism-based
[11] = Luminescence Cell-Based Dose Response HTS to Identify Inhibitors of 5'UTR Stem-Loop Driven Prion Protein mRNA Translation in H4 Neuroglioblastoma Cells. [Related pubchem assays: 1827 (Project Summary), 1813 (Primary HTS)]; assay type: functional
[12] = NIH-3T3 fibroblast cytotoxicity, dose response, cytotoxicity control, cell-based, fluorescence, Alamar Blue, secondary assay (AID 2327); assay type: functional;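 note: NIH-3T3 mouse fibroblasts cultured with fluconazole at 8 µg/mL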
[13] = inhibitors of firefly luciferase expression or activity, dose response, H4 neuroglioma cells, luminescence (AID 1990); assay type: functional, cell-based
[14] = Luminescence Cell-Based Dose Retest to Confirm Inhibitors of Cancer Stem Cells. [Related pubchem assays (depositor defined):AID2717, AID2721]; assay type: functional; conditions: Homo sapiens
[15] = Counterscreen for AddAB inhibitors: absorbance-based bacterial cell-based high throughput dose response assay for inhibitors of bacterial viability. [Related pubchem assays (depositor defined):AID435030, AID449728, AID449731, AID488942, AID488955, AID488956]; assay type: functional
[16] = inhibitors of SNCA 5'UTR-driven reporter translation, confirmation, H4 neuroglioma cells, luminescence (AID 1988); assay type: functional, cell-based
Exodeoxyribonuclease V = biological target: T1, Exodeoxyribonuclease V (Escherichia coli (strain K12), UniProt P04993+P07648+P08394); assay: E. coli RecBCD inhibitors, dose response, counter-screen for AddAB inhibitor project, absorbance, V66 E. coli, mutant T4 phage (AID 492957); assay type: functional, cell-based, Escherichia coli str. K-12 substr. MG1655
T1 sequence (P04993 whole entry): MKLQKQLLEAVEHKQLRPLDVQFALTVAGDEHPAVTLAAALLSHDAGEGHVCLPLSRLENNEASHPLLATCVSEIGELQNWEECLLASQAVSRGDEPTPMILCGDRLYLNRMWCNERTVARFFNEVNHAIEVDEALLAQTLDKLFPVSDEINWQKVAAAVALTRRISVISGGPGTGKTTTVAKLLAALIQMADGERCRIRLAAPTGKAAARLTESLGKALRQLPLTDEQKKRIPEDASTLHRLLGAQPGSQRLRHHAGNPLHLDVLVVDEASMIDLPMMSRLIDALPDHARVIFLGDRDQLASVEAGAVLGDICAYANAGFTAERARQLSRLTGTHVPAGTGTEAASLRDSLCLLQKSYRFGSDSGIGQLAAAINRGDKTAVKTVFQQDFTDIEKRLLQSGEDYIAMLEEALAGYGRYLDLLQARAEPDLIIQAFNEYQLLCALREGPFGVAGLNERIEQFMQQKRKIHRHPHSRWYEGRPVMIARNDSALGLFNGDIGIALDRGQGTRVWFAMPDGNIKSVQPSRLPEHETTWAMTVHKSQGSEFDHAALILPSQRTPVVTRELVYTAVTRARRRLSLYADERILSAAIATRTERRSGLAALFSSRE
T1 sequence (P07648 whole entry): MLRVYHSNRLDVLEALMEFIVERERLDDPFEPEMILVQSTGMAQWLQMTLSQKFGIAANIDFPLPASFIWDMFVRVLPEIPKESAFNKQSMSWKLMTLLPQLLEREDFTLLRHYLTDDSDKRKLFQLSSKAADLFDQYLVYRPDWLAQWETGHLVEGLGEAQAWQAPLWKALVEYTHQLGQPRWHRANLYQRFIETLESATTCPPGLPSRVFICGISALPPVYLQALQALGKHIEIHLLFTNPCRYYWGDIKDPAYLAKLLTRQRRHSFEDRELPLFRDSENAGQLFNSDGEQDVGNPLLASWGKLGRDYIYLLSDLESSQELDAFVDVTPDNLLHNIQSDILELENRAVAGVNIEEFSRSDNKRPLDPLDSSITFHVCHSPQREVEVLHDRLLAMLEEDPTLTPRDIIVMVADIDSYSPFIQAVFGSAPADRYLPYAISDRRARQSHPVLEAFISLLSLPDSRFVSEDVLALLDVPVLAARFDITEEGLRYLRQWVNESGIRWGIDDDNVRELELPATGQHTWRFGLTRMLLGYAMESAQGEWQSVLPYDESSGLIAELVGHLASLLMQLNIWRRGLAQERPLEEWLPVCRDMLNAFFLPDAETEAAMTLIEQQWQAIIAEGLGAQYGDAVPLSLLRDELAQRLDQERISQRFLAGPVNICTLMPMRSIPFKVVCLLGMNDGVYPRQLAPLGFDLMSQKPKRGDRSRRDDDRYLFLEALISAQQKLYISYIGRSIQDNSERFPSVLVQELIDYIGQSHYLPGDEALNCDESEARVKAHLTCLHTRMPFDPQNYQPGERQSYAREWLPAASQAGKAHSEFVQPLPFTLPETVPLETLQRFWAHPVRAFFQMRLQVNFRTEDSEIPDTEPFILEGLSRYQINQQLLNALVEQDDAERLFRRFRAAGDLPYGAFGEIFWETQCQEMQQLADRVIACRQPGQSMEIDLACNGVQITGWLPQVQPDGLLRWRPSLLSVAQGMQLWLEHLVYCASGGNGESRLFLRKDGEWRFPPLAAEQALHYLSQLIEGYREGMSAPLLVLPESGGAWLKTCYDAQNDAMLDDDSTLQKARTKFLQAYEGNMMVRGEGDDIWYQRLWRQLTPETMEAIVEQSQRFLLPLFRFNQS
T1 sequence (P08394 whole entry): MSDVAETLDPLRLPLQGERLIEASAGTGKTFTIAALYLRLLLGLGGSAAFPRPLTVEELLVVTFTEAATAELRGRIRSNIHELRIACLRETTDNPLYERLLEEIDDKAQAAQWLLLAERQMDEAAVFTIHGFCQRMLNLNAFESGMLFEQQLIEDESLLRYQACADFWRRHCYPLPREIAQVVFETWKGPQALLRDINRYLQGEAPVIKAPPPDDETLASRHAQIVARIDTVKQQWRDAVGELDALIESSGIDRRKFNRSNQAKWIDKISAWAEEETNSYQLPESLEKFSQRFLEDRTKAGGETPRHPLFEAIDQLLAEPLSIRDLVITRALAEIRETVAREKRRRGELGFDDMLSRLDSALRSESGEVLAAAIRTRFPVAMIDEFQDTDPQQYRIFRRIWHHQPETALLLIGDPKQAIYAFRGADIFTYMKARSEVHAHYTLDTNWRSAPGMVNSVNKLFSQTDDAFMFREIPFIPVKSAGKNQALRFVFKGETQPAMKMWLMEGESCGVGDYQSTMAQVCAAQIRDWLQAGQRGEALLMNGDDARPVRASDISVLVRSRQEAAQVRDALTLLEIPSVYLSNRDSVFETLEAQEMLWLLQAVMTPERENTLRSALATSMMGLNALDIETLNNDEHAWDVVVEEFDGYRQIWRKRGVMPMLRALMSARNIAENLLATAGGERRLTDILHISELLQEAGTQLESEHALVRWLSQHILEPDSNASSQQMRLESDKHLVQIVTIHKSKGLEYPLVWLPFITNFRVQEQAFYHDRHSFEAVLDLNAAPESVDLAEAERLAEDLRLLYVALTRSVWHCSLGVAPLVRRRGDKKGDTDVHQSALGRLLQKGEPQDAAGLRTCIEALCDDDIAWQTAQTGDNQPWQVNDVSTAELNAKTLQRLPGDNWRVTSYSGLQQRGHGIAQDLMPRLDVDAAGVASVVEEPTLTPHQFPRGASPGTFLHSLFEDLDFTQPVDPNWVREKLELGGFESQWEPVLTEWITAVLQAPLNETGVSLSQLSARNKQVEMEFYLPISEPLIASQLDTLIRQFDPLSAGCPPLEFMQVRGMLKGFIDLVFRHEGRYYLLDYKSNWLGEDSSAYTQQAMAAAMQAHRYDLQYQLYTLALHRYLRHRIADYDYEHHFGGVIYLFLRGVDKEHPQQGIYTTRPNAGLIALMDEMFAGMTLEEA

INS1 = assay: beta cell apoptosis inhibitors, cytokine rescue, dose response, luminescence, retest (AID 449756); assay type: functional, cell-based; conditions: Rattus norvegicus;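 note: cell death triggered by IL-1 beta plus TNF-alpha plus IFN-gamma mixture; protective hits raise ATP signal compared with cytokine alone wells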
[17] = C. albicans growth with fluconazole, confirmation, fluorescence, retest (AID 2467); assay type: functional, cell-based
[18] = human group III sPLA2 inhibitors, dose response, biochemical, QFRET, IC50 (AID 743457);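 note: green fluorescence rise as the enzyme cleaves BODIPY PC-A2 in liposomes; potency for inhibition of the enzyme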
[19] = HEK293T cell cytotoxicity, dose response, cytotoxicity control, CellTiter-Glo luminescence, cherry-picked samples, set 4 (AID 743441); assay type: functional, cell-based; conditions: HEK293
[20] = MITF Orthogonal Assay: SK-MEL-5 CTG Assay Measured in Cell-Based System Using Plate Reader - 2084-02_Inhibitor_Dose_DryPowder_Activity_Set7.; assay type: functional
[21] = MITF: Counter assay: A375 proliferation Measured in Cell-Based System Using Plate Reader - 2084-03_Inhibitor_Dose_DryPowder_Activity_Set8.; assay type: functional; conditions: A-375
Beta-lactamase [22] = biological target: Beta-lactamase (Salmonella choleraesuis (strain SC-B67), UniProt Q5J463); assay: Epi-absorbance-based counterscreen for selective VIM-2 inhibitors: dose response biochemical high throughput screening assay to identify inhibitors of TEM-1 serine-beta-lactamase.
Chain of Beta-lactamase (Salmonella choleraesuis (strain SC-B67), UniProt Q5J463) (Q5J463 whole entry): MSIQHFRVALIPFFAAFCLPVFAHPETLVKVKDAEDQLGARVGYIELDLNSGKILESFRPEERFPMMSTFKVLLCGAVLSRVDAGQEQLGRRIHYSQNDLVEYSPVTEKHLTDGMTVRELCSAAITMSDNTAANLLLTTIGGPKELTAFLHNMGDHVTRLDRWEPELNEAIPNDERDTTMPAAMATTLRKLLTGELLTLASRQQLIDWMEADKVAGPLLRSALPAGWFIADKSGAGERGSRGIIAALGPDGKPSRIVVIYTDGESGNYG

Beta-lactamase [23] = biological target: T2, Beta-lactamase (Pseudomonas aeruginosa, UniProt Q79MP6); assay: […] counterscreen for selective VIM-2 inhibitors: dose response biochemical high throughput screening assay to identify inhibitors of IMP-1 metallo-beta-lactamase.
T2 sequence (Q79MP6 whole entry): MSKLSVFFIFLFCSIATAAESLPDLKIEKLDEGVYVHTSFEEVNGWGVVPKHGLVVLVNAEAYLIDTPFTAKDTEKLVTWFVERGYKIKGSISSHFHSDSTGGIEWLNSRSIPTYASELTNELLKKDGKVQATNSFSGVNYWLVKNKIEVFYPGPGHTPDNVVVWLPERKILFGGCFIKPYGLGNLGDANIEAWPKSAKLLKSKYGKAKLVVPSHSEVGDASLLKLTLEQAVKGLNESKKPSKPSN

Beta-lactamase [24] = biological target: T2, Beta-lactamase; assay: IMP-1 metallo-beta-lactamase inhibitors, dose response, selectivity assay for VIM-2 inhibitor project, biochemical, epi-absorbance (AID 1920)

## CC(Sc1nc2ccccc2c(=O)n1C)C(=O)N(C)C1CCCCC1 (centres undefined)
[1]
  AC50: 13.7 µM (active)
[2]
  AC50: 38.2 µM (active)
[3]
  AC50: 2.27 µM (active)
Protein Wnt-3a
  IC50: 1.92 µM (active)
[4]
  AC50: 49.9 µM (active)
[5]
  AC50: 2.03 µM (active)

## CCCN1C(=O)/C(=C2/C=Cc3ccccc3N2CC)SC1=S
Nonstructural protein 1
  IC50: 5.77 µM (active)
[6]
  IC50: 29.7 µM (inactive)

## C/C=C/c1cccc(-c2nc(C(=O)Nc3nccs3)cc3c2[C@@H](CCO)N(C(=O)NC(C)C)C3)c1
[7]
  AbsAC35: 118.9 µM
[8]
  AbsAC35: 58.58 µM

## Cc1cc(N2CCNC[C@@H]2C)ccc1N1CC[C@@H](O)C1
[9]
  AC50: 4.37 µM (active)

## O=C(Cc1ccc(Cl)cc1)NCCC(=O)N[C@@H]1CCCc2ccccc21
[10]
  AC50: 5.41 µM (active)

## Cc1cc(Cl)ccc1N=C(S)NCc1ccc(F)cc1
Cryptococcus neoformans
  AC50: > 70 µM (inactive)

## Cc1onc(-c2c(Cl)cccc2Cl)c1C(=O)NN=C(N)COc1ccc(Cl)cc1
[11]
  EC50: 12 µM (active)
[12]
  EC50: > 150 µM (inactive)
[13]
  EC50: > 120 µM (not active)
[14]
  AC50: 3.07 µM (active)
[15]
  IC50: > 119 µM (inactive)
[16]
  EC50: > 120 µM (not active)
Exodeoxyribonuclease V
  IC50: > 119 µM (inactive)
INS1
  AC50: 3.71 µM (active)
[17]
  EC50: 3.09 µM (active)
[18]
  IC50: > 122 µM (inactive)

## Cc1cc(C)c(OCCNC(=O)c2ccccc2Sc2ccccc2C#N)c(C)c1
[19]
  AC50: > 52 µM (inactive)

## Cc1ccc(NC2=CC(=O)c3ccccc3C2=O)cc1C
[20]
  AC50: 0.904 µM (active)
[21]
  AC50: > 70 µM (inactive)

## S=c1[nH]nc(-c2cccs2)n1Cc1ccccc1
Beta-lactamase [22]
  IC50: > 59.6 µM (inactive)
Beta-lactamase [23]
  IC50: > 59.6 µM (inactive)
Beta-lactamase [24]
  IC50: > 59.6 µM (inactive)
